{"source": "patent US5744161A", "about": "“Use of piperine as a bioavailability enhancer” (priority 1995, dated 1998)", "key": {"[1]": {"conditions": "cited from earlier work"}, "preweaned mice": {"system": "preweaned mice", "conditions": "cited from earlier work; for effect on carcinogenic activity of safarole, tannic acid or methylcholantrene: fed to injected mice; for carcinogenic potency compared with methylcholantrene / tumor development: injected, preweaned mice"}, "cytochrome P-450": {"system": "cytochrome P-450", "conditions": "cited from earlier work"}, "[2]": {"experiment": "Blood levels of vitamin A (retinol) before and after 14 days supplementation", "type": "in vivo, human", "conditions": "5 mg piperine with beta-carotene, in words", "experimental": "Piperine known under the trademark Bioperine® consisting of 98% piperine has been evaluated in a nutrient bioavailability experiment.\nA dose of 5 mg of piperine, and up to 15 mg, would most likely not interfere with the metabolism of a majority of drugs as previously discussed. […] Retinol, or vitamin A, is a product of metabolic conversion of beta-carotene, and its blood levels would likely be affected by enzymatic inhibition/stimulation with piperine.\nValues of Vitamin A (retinol) before treatment and after\n14 days supplementation with Bioperine ®"}, "laboratory animals": {"system": "laboratory animals", "conditions": "broad range of doses; cited from earlier work"}, "[3]": {"system": "benzo(a)pyrene activation", "conditions": "cited from earlier work"}, "Rat": {"system": "Rat", "conditions": "cited from earlier work"}, "[4]": {"conditions": "co-administered drugs; cited from earlier work"}, "[5]": {"system": "mice treated with potent hepatotoxins and carbon tetrachloride", "conditions": "in vivo and in vitro experiments; cited from earlier work"}, "[6]": {"system": "mice treated with potent hepatotoxins tetra-hydroperoxide and carbon tetrachloride", "conditions": "cited from earlier work"}, "[7]": {"experiment": "Margin of bioenhancing dose of piperine versus LD50 in rodents", "parameters": "species or system mice and rats", "conditions": "in vivo; maximum approx. 15 mg/person/day, no more than 20 mg/day; read-out: bioenhancing dose less than LD50 dose", "experimental": "Black pepper contains approximately 5-9% piperine and is listed by the FDA as an herb which is generally recognized as safe (GRAS) for its intended use as spice, seasoning, or flavoring.\nThe dose of piperine considered as bioenhancing absorption of nutrients is considered 0.0004-0.15 mg of piperine/kg body weight."}, "V-79 lung fibroblasts": {"system": "V-79 lung fibroblasts", "conditions": "in vitro; cited from earlier work"}, "Mice": {"system": "Mice", "conditions": "cited from earlier work"}, "rats [8]": {"system": "rats", "conditions": "100 mg and 800 mg/kg intragastric; 10 mg/kg and 100 mg/kg intra-peritoneal; cited from earlier work"}, "rats [9]": {"system": "rats", "conditions": "cited from earlier work"}, "[10]": {"system": "rats injected with carageenin", "conditions": "cited from earlier work"}, "[11]": {"conditions": "with piperine, cited from earlier work"}, "[12]": {"conditions": "20 mg piperine daily for seven days, then 300 mg phenytoin; cited from earlier work"}, "[13]": {"conditions": "in vivo and in vitro experiments"}, "[14]": {"conditions": "dose that significantly inhibited pregnancy"}, "[15]": {"conditions": "5 to 20 times the average daily human intake"}}, "note": "Several values for one entry are separate records, joined by “and”; a condition that tells them apart may be missing. Identical values can stand only once. Entries after “also recorded” stand apart in the source; their conditions may differ. Like-named read-outs stand apart in the source and are kept apart here."}
{"compound": "Cn1c(=O)c2[nH]cnc2n(C)c1=O", "note": "[theophylline]", "values": [{"measurement": "maximum concentration of theophylline, increase", "setting": "[1]; 20 mg piperine daily for seven days, then 150 mg theophylline", "result": 1.5, "unit": "times higher"}, {"measurement": "blood levels of theophylline", "setting": "[1]; 20 mg piperine for seven days prior", "result": "increased blood levels"}]}
{"compound": "C=C(C)[C@H]1CC=C(C)CC1", "note": "[d-limonene]", "values": [{"measurement": "effect on carcinogenic activity of safarole, tannic acid or methylcholantrene", "setting": "preweaned mice", "result": "reduced their carcinogenic activity"}]}
{"compound": "C=CCc1ccc2c(c1)OCO2", "note": "[safarole]", "values": [{"measurement": "carcinogenic potency compared with methylcholantrene", "setting": "preweaned mice", "result": "weak carcinogens"}, {"measurement": "tumor development", "setting": "preweaned mice", "result": "developed tumors"}, {"measurement": "increase of cytochrome P-450 content of hepatic microsomes", "setting": "cytochrome P-450; pretreatment of rats", "result": "about 50%"}]}
{"compound": "O=C(/C=C/C=C/c1ccc2c(c1)OCO2)N1CCCCC1", "note": "[piperine]", "values": [{"measurement": "effect on carcinogenic activity of safarole, tannic acid or methylcholantrene", "setting": "preweaned mice", "result": "did not modify their carcinogenic activity"}, {"measurement": "blood levels of retinol / conversion of beta-carotene to vitamin A", "setting": "[2]", "result": "remained unchanged throughout the experiment; also recorded: does not elevate the conversion of beta-carotene to vitamin A"}, {"measurement": "general growth pattern, body to organ weight ratio, clinical symptomatology and blood chemistry", "setting": "laboratory animals", "result": "does not cause any abnormality"}, {"measurement": "effect on benzo(a)pyrene cytotoxicity", "setting": "[3]; by lowering benzo(a)pyrene-oxide production", "result": "decreasing benzo(a)pyrene cytotoxicity"}, {"measurement": "effect on benzo(a)pyrene activation (benzo(a)pyrene-oxide production)", "setting": "[3]", "result": "inhibit benzo(a)pyrene activation"}, {"measurement": "LD50", "setting": "Rat; Rat weanling", "result": 585.0, "unit": "mg/kg body weight"}, {"measurement": "LD50", "setting": "Rat; Rat", "result": "514.0 mg/kg body weight and 800.0 mg/kg body weight"}, {"measurement": "bioavailability of a number of drugs", "setting": "[4]", "result": "increase the bioavailability, blood levels and efficacy of a number of drugs"}, {"measurement": "enzymatic leakage of glutamate pyruvate transaminase and alkaline phosphatase", "setting": "[5]", "result": "reduced enzymatic leakage"}, {"measurement": "hepatoprotective action", "setting": "[6]; [13]", "result": "hepatoprotective action"}, {"measurement": "lipid peroxidation", "setting": "[6]; [13]", "result": "decrease in lipid peroxidation"}, {"measurement": "reduced glutathione and total thiols in the liver", "setting": "[6]; mouse, in vivo", "result": "prevented depletion of reduced glutathione and total thiols"}, {"measurement": "selectivity ratio", "setting": "[7]", "result": "≤ 40000"}, {"measurement": "effect on benzo(a)pyrene cytotoxicity", "setting": "V-79 lung fibroblasts", "result": "significantly enhanced benzo(a)pyrene cytotoxicity"}, {"measurement": "anti-fertility activity", "setting": "Mice; 5 mg/kg body weight/day", "result": "no anti-fertility activity"}, {"measurement": "inhibition of pregnancy", "setting": "Mice; 12.5 mg/kg body weight, twice a day, intraperitoneal or oral", "result": "inhibited significantly pregnancy in mice"}, {"measurement": "effectiveness at pre- and post-implantation periods", "setting": "Mice; 12.5 mg/kg body weight, twice a day", "result": "effective at both pre- and post-implantation periods"}, {"measurement": "clinically noticeable toxicity", "setting": "Mice; [14]", "result": "did not produce clinically noticeable toxicity"}, {"measurement": "effect on estrogen cycle", "setting": "Mice; [14]", "result": "did not interfere with the estrogen cycle"}, {"measurement": "uterotropic effect", "setting": "Mice; [14]", "result": "did not show uterotropic effect"}, {"measurement": "serum sorbitol dehydrogenase (SDH), ALT, AST and isocitrate dehydrogenase (ICD)", "setting": "rats [8]", "result": "None of the treatment regiments altered significantly"}, {"measurement": "decrease of cytochrome P-450 content of hepatic microsomes", "setting": "cytochrome P-450; treatment of rats", "result": "approximately 20%"}, {"measurement": "clinical symptoms", "setting": "rats [9]; [15]", "result": "no clinical symptoms"}, {"measurement": "food intake, growth pattern, organ weights", "setting": "rats [9]; [15]", "result": "did not affect"}, {"measurement": "blood chemistry (RBC, WBC, differential count, hemoglobin, serum proteins, albumins, globulins, glucose, cholesterol, aminotransferases, phosphatases)", "setting": "rats [9]; treated vs untreated animals", "result": "no alterations"}, {"measurement": "acid phosphatase levels", "setting": "[10]", "result": "leveling off increased levels of acid phosphatase"}, {"measurement": "lipid peroxide formation", "setting": "[10]", "result": "inhibiting lipid peroxide formation"}]}
{"compound": "Cc1ccc2cc3c(ccc4ccccc43)c3c2c1CC3", "note": "[methylcholantrene]", "values": [{"measurement": "tumor development", "setting": "preweaned mice", "result": "developed tumors"}]}
{"compound": "CC(C)NCC(O)COc1cccc2ccccc12", "note": "(stereo not shown) [propranolol]", "values": [{"measurement": "elimination rate of propranolol", "setting": "[11]; 3 mg dose", "result": "did not affect the elimination rate; also recorded: without slowing down the drug elimination rate"}, {"measurement": "maximum blood concentration increase of propranolol", "setting": "[11]; 3 mg dose", "result": "two fold; also recorded: doubling its blood levels"}, {"measurement": "plasma / blood levels of propranolol", "setting": "[11]", "result": "significant increase in plasma levels; also recorded: significant increase in blood levels"}]}
{"compound": "O=C(OC[C@H]1O[C@@H](OC(=O)c2cc(O)c(O)c(OC(=O)c3cc(O)c(O)c(O)c3)c2)[C@H](OC(=O)c2cc(O)c(O)c(OC(=O)c3cc(O)c(O)c(O)c3)c2)[C@@H](OC(=O)c2cc(O)c(O)c(OC(=O)c3cc(O)c(O)c(O)c3)c2)[C@@H]1OC(=O)c1cc(O)c(O)c(OC(=O)c2cc(O)c(O)c(O)c2)c1)c1cc(O)c(O)c(OC(=O)c2cc(O)c(O)c(O)c2)c1", "note": "[tannic acid]", "values": [{"measurement": "carcinogenic potency compared with methylcholantrene", "setting": "preweaned mice", "result": "weak carcinogens"}, {"measurement": "tumor development", "setting": "preweaned mice", "result": "developed tumors"}]}
{"compound": "O=C1NC(=O)C(c2ccccc2)(c2ccccc2)N1", "note": "[phenytoin]", "values": [{"measurement": "blood concentration of phenytoin", "setting": "[12]", "result": "increased blood levels; also recorded: rose more rapidly"}, {"measurement": "elimination of phenytoin", "setting": "[12]", "result": "dramatically prolonged the elimination time; also recorded: significantly slower elimination"}, {"measurement": "maximum concentration of phenytoin", "setting": "[12]", "result": "significantly higher concentrations"}, {"measurement": "time to maximum concentration of phenytoin", "setting": "[12]", "result": "shorter time"}]}
